From ChEMBL document CHEMBL5576120, “Discovery and In Vivo Efficacy of AZ-PRMT5i-1, a Novel PRMT5 Inhibitor with High MTA Cooperativity” (J Med Chem, 2024) come the findings set out here.

Data set [1] deals with Protein arginine N-methyltransferase 5 (Homo sapiens, UniProt O14744).
Description: Inhibition of PRMT5 in human HCT-116 cells with MTAP KO assessed as decrease in SMDA level incubated for 48 hrs by immunofluorescence analysis
A further data set has as its system HCT-116. The experiment in a line: Cooperativity fold, ratio of IC50 for PRMT5 in human HCT-116 cells expressing wild-type MTAP assessed as decrease in SMDA level to IC50 for PRMT5 in human HCT-116 cells with MTAP KO assessed as decrease in SMDA level. The class given is cell-based.
The nature of data set [2]: physchem. Conditions: buffer, pH 7.4.
Description: Lipophilicity, logD of compound at pH 7.4
In data set [3] the target is T1, PRMT5/MEP50 complex (Homo sapiens, UniProt O14744). The experiment in a line: biochemical.
Description: Inhibition of PRMT5 (1 to 637 residues)/MEP504 (2 to 342 residues)(unknown origin) expressed in baculovirus infected Sf21 insect cells using histone H4/SAM as substrate incubated for 5 hrs in presence of MTA by MTase Glo assay
The nature of data set [4]: Intrinsic clearance in rat hepatocytes assessed per million cells. The class given is ADME, cell-based, Hepatocyte. Conditions: read-out: CLH.
In data set [5] the target is T1, PRMT5/MEP50 complex. Briefly: biochemical. The source holds these as a separate data set.
Description: Inhibition of PRMT5 (1 to 637 residues)/MEP504 (2 to 342 residues)(unknown origin) expressed in baculovirus infected Sf21 insect cells using histone H4/SAM as substrate incubated for 5 hrs by MTase Glo assay
The next data set can be described thus: in vitro. Conditions: human, Caco-2.
A short description of data set [6]: Half life in Wistar Han rat at 1 mg/kg, po or 0.5 mg/kg, iv. It is filed as ADME, organism-based. The following applies: in vivo.
Data set [7] is described as follows: Volume of distribution at steady state in Wistar Han rat at 1 mg/kg, po or 0.5 mg/kg, iv. It is filed as ADME, organism-based. Conditions: in vivo.
Data set [8] is described as follows: Oral bioavailability at steady state in Wistar Han rat at 1 mg/kg. The following applies: in vivo. It is filed as ADME, organism-based.
A short description of data set [9]: physchem. The following applies: phosphate buffer, pH 7.4.
In data set [10] the test system is Lu-99 cell line. Briefly: Antiproliferative activity against human Lu-99 cells incubated for 7 days. It is filed as functional, cell-based. Conditions: Lu-99, 168 h.
The test system of data set [11] is Lu-99 cell line. Briefly: Antitumor activity against human Lu-99 cells xenografted in nude mouse assessed as inhibition of SDMA level administered orally twice a day measured for 21 days. It is filed as functional, cell-based. Conditions: dose 1-10 mg/kg, route po, time 21.0 day. Background: In xenograft studies the graft and the host belong to different species.

Data set [12] relates to Lu-99 cell line. Briefly: Antitumor activity against human Lu-99 cells xenografted in nude mouse assessed as tumor growth inhibition administered orally twice a day measured for 21 days. The class given is functional, cell-based. Conditions: dose 1-10 mg/kg, route po, time 21.0 day.
Data set [13] in a line: Toxicity in nude mouse xenografted with human Lu-99 cells assessed as body weight loss upto 100 mg/kg, po bid measured for 21 days. It is filed as organism-based. Conditions: in vivo, 504 h, time 21 day.
The next data set concerns the target Translocator protein (Homo sapiens, UniProt P30536). The experiment in a line: Inhibition of human TSPO.
Data set [14] can be described thus: Antitumor activity against human PDX GA2254 cells xenografted in Balb/c nude mouse assessed as inhibition of SDMA level at 1 mg/kg, po bid measured for 21 days relative to control. It is filed as functional. The following applies: PDX GA2254, 504 h, time 21 day, read-out: TGI.
The nature of data set [15]: Antitumor activity against human PDX GA2254 cells xenografted in Balb/c nude mouse at 10 mg/kg, po bid measured for 21 days relative to control. It is filed as functional. Conditions: PDX GA2254, 504 h, time 21 day, read-out: TGI.
Data set [16] deals with Lu-99 cell line. The experiment in a line: Antitumor activity against human Lu-99 cells xenografted in nude mouse at 100 mg/kg, po bid measured after 21 days relative to control. It is filed as functional. The following applies: Lu-99, 504 h, time 21 day, read-out: TGI.
In data set [17] the test system is Lu-99 cell line. The experiment in a line: Antitumor activity against human Lu-99 cells xenografted in nude mouse assessed as inhibition of SDMA level at 100 mg/kg, po bid measured after 21 days relative to control. It is filed as functional. Conditions: Lu-99, 504 h, time 21 day.
The nature of data set [18]: Oral bioavailability in CD-1 mouse at 1 mg/kg. The following applies: in vivo. It is filed as ADME, organism-based.
A short description of data set [19]: Antitumor activity against human PDX GA2254 cells xenografted in Balb/c nude mouse assessed as inhibition of SDMA level at 50 mg/kg, po bid measured for 21 days relative to control. The class given is functional. Conditions: PDX GA2254, 504 h, time 21 day, read-out: TGI.
The nature of data set [20]: Antitumor activity against human PDX GA2254 cells xenografted in Balb/c nude mouse assessed as inhibition of SDMA level at 10 mg/kg, po bid measured for 21 days relative to control. It is filed as functional. Conditions: PDX GA2254, 504 h, time 21 day, read-out: TGI.
Data set [21] is described as follows: Volume of distribution at steady state in CD-1 mouse at 1 mg/kg, po or 0.5 mg/kg, iv. It is filed as ADME, organism-based. The following applies: in vivo.
A short description of data set [22]: Antitumor activity against human PDX GA2254 cells xenografted in Balb/c nude mouse assessed as tumor regression at 50 mg/kg, po bid measured for 21 days relative to control. The class given is functional. The following applies: time 21 day.
Data set [23] in a line: Half life in CD-1 mouse at 1 mg/kg, po or 0.5 mg/kg, iv. The class given is ADME, organism-based. The following applies: in vivo.
The nature of data set [24]: Intrinsic clearance in human hepatocytes assessed per million cells. It is filed as ADME, cell-based, Hepatocyte. The following applies: read-out: CLH.

SMILES strings stand for the structures. In brackets after ≈: the same amount, converted by molar mass. Bounds are passed on as bounds.

Protein arginine N-methyltransferase 5, sequence (O14744 whole entry): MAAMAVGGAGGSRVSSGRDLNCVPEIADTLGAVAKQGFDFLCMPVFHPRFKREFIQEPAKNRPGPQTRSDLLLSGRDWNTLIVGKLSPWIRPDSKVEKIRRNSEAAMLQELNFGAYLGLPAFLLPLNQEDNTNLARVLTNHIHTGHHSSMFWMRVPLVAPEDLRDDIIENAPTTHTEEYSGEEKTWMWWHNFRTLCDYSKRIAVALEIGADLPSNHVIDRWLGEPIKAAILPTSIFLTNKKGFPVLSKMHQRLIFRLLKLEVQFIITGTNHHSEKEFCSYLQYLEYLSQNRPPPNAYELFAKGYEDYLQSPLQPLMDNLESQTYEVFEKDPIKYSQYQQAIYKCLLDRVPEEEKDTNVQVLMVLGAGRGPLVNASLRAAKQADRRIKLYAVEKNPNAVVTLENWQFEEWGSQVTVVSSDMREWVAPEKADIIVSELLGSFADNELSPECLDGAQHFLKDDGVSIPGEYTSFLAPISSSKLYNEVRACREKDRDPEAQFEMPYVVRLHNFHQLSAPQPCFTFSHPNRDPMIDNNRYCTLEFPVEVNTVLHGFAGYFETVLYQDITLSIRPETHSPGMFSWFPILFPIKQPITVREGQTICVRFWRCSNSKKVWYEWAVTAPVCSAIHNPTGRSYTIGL
T1 sequence (O14744 whole entry): as above
T1 sequence (Q9BQA1 whole entry, further chain): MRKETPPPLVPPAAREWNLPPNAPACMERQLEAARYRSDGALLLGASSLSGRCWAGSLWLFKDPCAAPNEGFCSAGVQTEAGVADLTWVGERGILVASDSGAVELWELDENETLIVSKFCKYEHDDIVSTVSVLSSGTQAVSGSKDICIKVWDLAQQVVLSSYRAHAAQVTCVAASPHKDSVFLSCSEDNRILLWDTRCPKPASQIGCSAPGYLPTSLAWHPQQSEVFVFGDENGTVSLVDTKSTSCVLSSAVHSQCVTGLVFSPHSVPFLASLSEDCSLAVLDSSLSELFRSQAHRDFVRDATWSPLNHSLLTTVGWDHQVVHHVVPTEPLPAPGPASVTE
Translocator protein, sequence (P30536 whole entry): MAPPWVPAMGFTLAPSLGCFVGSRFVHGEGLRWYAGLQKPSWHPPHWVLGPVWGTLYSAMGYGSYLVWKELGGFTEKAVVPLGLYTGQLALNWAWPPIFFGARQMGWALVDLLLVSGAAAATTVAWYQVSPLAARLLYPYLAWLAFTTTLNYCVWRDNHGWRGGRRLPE
Description for in vitro: Apparent permeability across apical to basal side of human Caco-2 cells at 10 uM

As to `COc1ccc2c(c1)C(=O)N(Cc1cnc(NC(=N)N)s1)C2C(=O)NCc1ccc(F)cc1` (stereo unspecified), the IC50 in data set [1] stood at 0.38 µM; against PRMT5/MEP50 complex [3], 0.012 µM; on PRMT5/MEP50 complex [5], 0.051 µM. For the same compound, the Ratio IC50 with HCT-116 amounted to 7.7. Besides, in “physchem [2]”, the logD came to 2.3. In addition, in [4], the hepatocyte CLint worked out at 22 µL/min/1e6 cells.
With `CNC(=N)Nc1ncc(CN2C(=O)c3cc(F)ccc3C2C(=O)NCc2ccc(F)cc2)s1` (stereo unspecified), the Papp A→B at 10 µM in the data set “in vitro” turned out to be 140 nm/s. In [6], the half-life was 0.71 h. The Vdss in data set [7] was determined as 2.6 L/kg. This compound came in with a log distribution coefficient (logD) in “physchem [2]” of 2.7. For the same compound, the bioavailability in data set [8] was determined as 20%. Besides, the hepatocyte CLint in data set [4] was determined as 19 µL/min/1e6 cells. This compound showed a solubility at 24 h in the data set “physchem [9]” of 8 µM (≈ 3.76 µg/mL).
`O=C(NCc1ccc(F)cc1)C1c2ccc(F)cc2C(=O)N1Cc1cc2cccnc2[nH]1` (stereo unspecified) gave a logD in the data set “physchem [2]” of 3.2. For the same compound, in data set [4], the hepatocyte CLint stood at 123 µL/min/1e6 cells.
Turning to `Nc1nc2cc(CN3C(=O)c4cc(F)ccc4[C@]34CCN(Cc3ccc(F)cc3)C4=O)[nH]c2cc1F`, in the data set with Lu-99 cell line [10], half-maximal inhibition (IC50) required 0.124 µM. In addition, the inhibition result in the data set on Lu-99 cell line [11] and with Lu-99 cell line [12] was “Dose-Dependent Effect” throughout. The same compound had an apparent permeability from apical to basolateral (Papp A→B) at 10 µM in “in vitro” of 480 nm/s. The Activity entry in data set [13] is given as “Non-Toxic”; in [22], 50%. The same compound showed a Ki at Translocator protein of 0.61 µM. In addition, the inhibition in vivo at 1 mg/kg in data set [14] was 51%. Also, the inhibition in vivo at 10 mg/kg in [15] was 33%; in data set [20], 93%. Further, the half-life was 1.8 h in [6] and 3.4 h in [23]. For the same compound, the inhibition in vivo at 100 mg/kg in the data set with Lu-99 cell line [16] was determined as 71%; in the data set with Lu-99 cell line [17], 95%. Moreover, the Vdss in data set [7] was found to be 2.4 L/kg; in [21], 2.1 L/kg. The bioavailability in data set [18] came out at 101%; in [8] it was 35%. Also, in [19], the inhibition in vivo at 50 mg/kg is 97%. This compound returned a logD in “physchem [2]” of 2.8. In addition, the results for the hepatocyte CLint in [4] and in data set [24] were less than 5 µL/min/1e6 cells and less than 1 µL/min/1e6 cells, respectively. The compound also had a solubility at 24 h in the data set “physchem [9]” of 8 µM (≈ 3.93 µg/mL).
In the case of `O=C(NCc1ccc(F)cc1)C1c2ccc(F)cc2C(=O)N1Cc1cc2ncccc2[nH]1` (stereo unspecified), in the data set “physchem [2]”, the logD was 3.4. In addition, in data set [4], the hepatocyte CLint amounted to 112 µL/min/1e6 cells.
Take `N=C(N)Nc1nnc(CN2C(=O)c3ccccc3C2C(=O)NCc2ccc(F)cc2)s1` (stereo unspecified): the log distribution coefficient (logD) in the data set “physchem [2]” was 1.7. The hepatocyte CLint in [4] came out at 23 µL/min/1e6 cells.
The corresponding values for `N=C(N)Nc1ncc(CN2C(=O)c3ccccc3C2C(=O)N(Cc2ccc(F)cc2)C2CC2)s1` (stereo unspecified) are 2.6 and 64 µL/min/1e6 cells.
The matching figures for `O=C(NCc1ccc(F)cc1)C1c2ccccc2C(=O)N1Cc1cc2ncccc2[nH]1` (stereo unspecified): 3 and 70 µL/min/1e6 cells.
The corresponding values for `COc1cccc2c1C(=O)N(Cc1cnc(NC(=N)N)s1)C2C(=O)NCc1ccc(F)cc1` (stereo unspecified) are 1.9 and 11 µL/min/1e6 cells.
The compound `Nc1ccc2ncc(CN3C(=O)c4cc(F)ccc4[C@]34CCN(Cc3ccc(F)cc3)C4=O)cc2n1` came in with an IC50 in data set [1] of 0.24 µM. In “in vitro”, this compound gave a Papp A→B at 10 µM of 270 nm/s. In the data set on HCT-116, the Ratio IC50 was found to be 18. The same compound showed a log distribution coefficient (logD) in the data set “physchem [2]” of 2.2. Moreover, the hepatocyte CLint in [4] worked out at 22 µL/min/1e6 cells. In “physchem [9]”, this compound showed a solubility at 24 h of 55 µM (≈ 26.7 µg/mL).
As for `Nc1ccc2cc(CN3C(=O)c4cc(F)ccc4[C@]34CCN(Cc3ccc(F)cc3)C4=O)[nH]c2n1`, the half-inhibitory concentration (IC50) in data set [1] came out at 0.14 µM; against PRMT5/MEP50 complex [3] it was 0.009 µM. In “in vitro”, this compound displayed a Papp A→B at 10 µM of 310 nm/s. Moreover, the Ratio IC50 in the data set with HCT-116 was determined as 31. Also, the logD in the data set “physchem [2]” turned out to be 2.5. The hepatocyte CLint in data set [4] came out at 12 µL/min/1e6 cells.
As for `N#Cc1ccc2c(c1)C(C(=O)NCc1ccc(F)cc1)N(Cc1cnc(NC(=N)N)s1)C2=O` (stereo unspecified), the logD in the data set “physchem [2]” was 2.1. Besides, the hepatocyte CLint in data set [4] was determined as 13 µL/min/1e6 cells.
As to `Cn1c(CN2C(=O)c3cc(F)ccc3[C@]23CCN(Cc2ccc(F)cc2)C3=O)cc2nc(N)ccc21`, half-maximal inhibition in data set [1] (IC50) required 4.8 µM. In addition, the Ratio IC50 in the data set with HCT-116 was more than 5. The pH-dependent lipophilicity (logD) in “physchem [2]” came to 2.2. In addition, the hepatocyte CLint in data set [4] was determined as 21 µL/min/1e6 cells. In the data set “physchem [9]”, this compound had a solubility at 24 h of 110 µM (≈ 53.6 µg/mL).
The compound `Nc1ccc2oc(CN3C(=O)c4cc(F)ccc4[C@]34CCN(Cc3ccc(F)cc3)C4=O)cc2n1` showed a Papp A→B at 10 µM in the data set “in vitro” of 720 nm/s. Further, in the data set “physchem [2]”, the pH-dependent lipophilicity (logD) came to 2.3. Besides, the hepatocyte CLint in [4] was found to be 59 µL/min/1e6 cells. In the data set “physchem [9]”, the solubility at 24 h turned out to be 243 µM (≈ 115 µg/mL).

The IC50 is the concentration that inhibits the measured activity by half. Read a low IC50 as greater potency. As a reminder, the logD is lipophilicity at a set pH, counting ionised and neutral species. A higher logD goes with higher lipophilicity. As a reminder, the Papp A→B is how fast a substance crosses the layer from the apical side. One may read the half-life as the time in which the quantity being followed falls by half. The solubility is how much of the substance goes into solution per volume. A higher solubility goes with much dissolved substance. As a reminder, the Ki is a measure of affinity in units of concentration, obtained from inhibition or displacement.
